Test results as given in ChEMBL document CHEMBL5465560, “Selectivity Literature for EUbOPEN Chemogenomic Library” (2024).
Each block holds one compound with its values, some of them ahead of it.

Legend:
[1] = target: T1, Protein arginine N-methyltransferase 7 (Homo sapiens) (UniProt Q9NVM4); assay: Selectivity interaction (Methyltransferase screen (Scintillation proximity assays)) EUB0000255b PRMT7
T1 sequence (whole entry): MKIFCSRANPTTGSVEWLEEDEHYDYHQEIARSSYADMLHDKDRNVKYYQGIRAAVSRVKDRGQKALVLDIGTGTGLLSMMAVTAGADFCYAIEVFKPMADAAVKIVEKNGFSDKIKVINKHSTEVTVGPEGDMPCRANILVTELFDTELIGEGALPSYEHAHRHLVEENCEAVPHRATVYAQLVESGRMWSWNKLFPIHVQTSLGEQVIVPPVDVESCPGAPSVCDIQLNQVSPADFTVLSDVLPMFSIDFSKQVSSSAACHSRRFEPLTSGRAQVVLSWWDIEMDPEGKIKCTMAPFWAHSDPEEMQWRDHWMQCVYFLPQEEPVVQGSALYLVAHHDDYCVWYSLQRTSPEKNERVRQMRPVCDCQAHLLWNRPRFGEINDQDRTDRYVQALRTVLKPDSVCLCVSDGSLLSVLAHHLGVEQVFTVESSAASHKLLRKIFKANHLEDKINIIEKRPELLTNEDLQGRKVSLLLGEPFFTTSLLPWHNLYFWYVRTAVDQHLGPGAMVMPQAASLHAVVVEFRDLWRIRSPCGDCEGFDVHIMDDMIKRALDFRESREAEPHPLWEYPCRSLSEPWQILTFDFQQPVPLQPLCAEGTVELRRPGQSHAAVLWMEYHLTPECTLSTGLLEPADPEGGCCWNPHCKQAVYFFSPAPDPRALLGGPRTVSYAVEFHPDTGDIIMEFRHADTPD

[2] = target: Dual specificity mitogen-activated protein kinase kinase 2 (Homo sapiens) (UniProt P36507)
[3] = target: Mitogen-activated protein kinase 6 (Homo sapiens) (UniProt Q16659); assay: Selectivity interaction (KinomeScan (DiscoverX)) EUB0000618a MAPK6; conditions: at 10 µM
Sequence of Mitogen-activated protein kinase 6 (Homo sapiens) (Q16659 whole entry): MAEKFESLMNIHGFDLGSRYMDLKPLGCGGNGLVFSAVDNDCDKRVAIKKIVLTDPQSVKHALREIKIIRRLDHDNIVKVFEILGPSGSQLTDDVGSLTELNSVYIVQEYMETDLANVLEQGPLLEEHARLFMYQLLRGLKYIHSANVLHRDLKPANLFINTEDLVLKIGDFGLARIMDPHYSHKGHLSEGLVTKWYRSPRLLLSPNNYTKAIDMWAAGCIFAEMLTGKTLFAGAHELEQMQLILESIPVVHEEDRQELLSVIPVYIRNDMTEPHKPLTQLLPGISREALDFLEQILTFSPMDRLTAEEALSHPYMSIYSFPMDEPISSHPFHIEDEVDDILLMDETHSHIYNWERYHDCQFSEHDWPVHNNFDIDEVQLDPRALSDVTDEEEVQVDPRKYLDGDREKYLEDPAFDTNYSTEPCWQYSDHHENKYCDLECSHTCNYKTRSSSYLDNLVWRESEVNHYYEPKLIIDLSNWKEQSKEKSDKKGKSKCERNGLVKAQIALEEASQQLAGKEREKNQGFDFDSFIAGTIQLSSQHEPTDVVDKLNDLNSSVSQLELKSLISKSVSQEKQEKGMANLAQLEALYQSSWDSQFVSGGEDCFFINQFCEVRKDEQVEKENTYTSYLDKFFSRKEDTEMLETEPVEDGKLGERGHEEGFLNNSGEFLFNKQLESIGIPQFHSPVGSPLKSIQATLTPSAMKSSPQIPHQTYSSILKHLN

[4] = target: Ribosomal protein S6 kinase alpha-2 (Homo sapiens) (UniProt Q15349); assay: Selectivity interaction (KinomeScan (DiscoverX)) EUB0000618a RPS6KA2; conditions: at 10 µM
Sequence of Ribosomal protein S6 kinase alpha-2 (Homo sapiens) (Q15349 whole entry): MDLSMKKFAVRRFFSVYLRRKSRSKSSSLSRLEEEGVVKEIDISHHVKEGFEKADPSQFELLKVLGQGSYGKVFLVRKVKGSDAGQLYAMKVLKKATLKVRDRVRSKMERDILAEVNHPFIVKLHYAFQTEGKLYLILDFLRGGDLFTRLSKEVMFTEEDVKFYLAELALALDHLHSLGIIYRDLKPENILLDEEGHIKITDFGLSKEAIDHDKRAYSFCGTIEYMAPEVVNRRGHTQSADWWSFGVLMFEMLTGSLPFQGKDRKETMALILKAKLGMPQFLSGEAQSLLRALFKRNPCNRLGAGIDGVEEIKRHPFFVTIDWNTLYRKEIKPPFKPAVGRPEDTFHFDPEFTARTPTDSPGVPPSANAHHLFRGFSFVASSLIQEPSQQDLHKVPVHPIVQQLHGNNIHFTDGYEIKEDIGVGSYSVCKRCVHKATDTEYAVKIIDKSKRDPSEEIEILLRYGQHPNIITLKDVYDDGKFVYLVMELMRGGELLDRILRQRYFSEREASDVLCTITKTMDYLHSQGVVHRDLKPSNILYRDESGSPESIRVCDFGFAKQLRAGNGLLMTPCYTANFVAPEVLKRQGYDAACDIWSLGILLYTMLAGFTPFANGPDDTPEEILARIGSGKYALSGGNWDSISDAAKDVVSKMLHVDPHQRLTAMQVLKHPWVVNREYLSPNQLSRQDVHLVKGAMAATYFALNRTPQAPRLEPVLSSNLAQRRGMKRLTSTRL

[5] = tested on: Hepatocyte growth factor receptor (Homo sapiens), P08581 [M1250T]; conditions: at 10 µM
Sequence of Hepatocyte growth factor receptor (Homo sapiens), P08581 [M1250T] (P08581 whole entry M1250T): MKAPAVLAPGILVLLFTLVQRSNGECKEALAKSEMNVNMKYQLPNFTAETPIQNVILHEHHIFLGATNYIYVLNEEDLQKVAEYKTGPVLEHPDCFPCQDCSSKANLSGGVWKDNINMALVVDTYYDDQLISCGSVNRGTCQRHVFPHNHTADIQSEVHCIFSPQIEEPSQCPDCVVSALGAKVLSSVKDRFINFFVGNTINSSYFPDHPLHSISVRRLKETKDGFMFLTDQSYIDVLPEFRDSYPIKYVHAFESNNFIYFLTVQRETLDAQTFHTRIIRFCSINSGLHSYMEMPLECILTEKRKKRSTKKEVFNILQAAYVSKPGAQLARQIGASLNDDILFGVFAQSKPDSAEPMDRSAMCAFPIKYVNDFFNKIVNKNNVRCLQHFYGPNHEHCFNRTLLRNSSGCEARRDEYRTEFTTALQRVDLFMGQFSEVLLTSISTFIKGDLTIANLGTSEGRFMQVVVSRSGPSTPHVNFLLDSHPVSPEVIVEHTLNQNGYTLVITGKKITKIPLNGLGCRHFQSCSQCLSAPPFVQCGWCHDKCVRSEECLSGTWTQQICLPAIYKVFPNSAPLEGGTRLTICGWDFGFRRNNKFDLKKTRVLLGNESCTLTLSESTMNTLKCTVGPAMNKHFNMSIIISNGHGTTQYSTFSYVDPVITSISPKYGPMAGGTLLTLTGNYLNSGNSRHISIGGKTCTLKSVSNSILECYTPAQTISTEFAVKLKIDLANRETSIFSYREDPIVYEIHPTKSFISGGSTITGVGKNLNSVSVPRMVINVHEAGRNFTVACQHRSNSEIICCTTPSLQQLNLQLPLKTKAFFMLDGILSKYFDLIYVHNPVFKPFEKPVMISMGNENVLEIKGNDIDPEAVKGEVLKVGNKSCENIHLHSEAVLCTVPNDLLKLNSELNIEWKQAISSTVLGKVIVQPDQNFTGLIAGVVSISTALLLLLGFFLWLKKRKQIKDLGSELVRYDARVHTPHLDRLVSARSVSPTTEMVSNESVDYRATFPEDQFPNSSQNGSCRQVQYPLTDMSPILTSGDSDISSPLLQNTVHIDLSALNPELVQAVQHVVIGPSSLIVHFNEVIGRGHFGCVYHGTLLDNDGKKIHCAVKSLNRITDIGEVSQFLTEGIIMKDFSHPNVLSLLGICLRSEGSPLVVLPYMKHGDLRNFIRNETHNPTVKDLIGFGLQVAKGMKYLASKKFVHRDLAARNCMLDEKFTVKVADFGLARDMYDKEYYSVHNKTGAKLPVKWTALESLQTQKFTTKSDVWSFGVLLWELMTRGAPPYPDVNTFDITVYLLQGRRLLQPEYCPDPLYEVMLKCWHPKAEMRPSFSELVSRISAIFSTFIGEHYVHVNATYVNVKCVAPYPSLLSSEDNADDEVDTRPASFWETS

[6] = target: T2, Inhibitor of nuclear factor kappa-B kinase subunit epsilon (Homo sapiens) (UniProt Q14164); assay: Selectivity interaction (ActivX KiNativ screen (kinase selectivity in THP-1 cell lysates)) EUB0000639a IKBKE; assay type: subcellular; conditions: lysate
T2 sequence (whole entry): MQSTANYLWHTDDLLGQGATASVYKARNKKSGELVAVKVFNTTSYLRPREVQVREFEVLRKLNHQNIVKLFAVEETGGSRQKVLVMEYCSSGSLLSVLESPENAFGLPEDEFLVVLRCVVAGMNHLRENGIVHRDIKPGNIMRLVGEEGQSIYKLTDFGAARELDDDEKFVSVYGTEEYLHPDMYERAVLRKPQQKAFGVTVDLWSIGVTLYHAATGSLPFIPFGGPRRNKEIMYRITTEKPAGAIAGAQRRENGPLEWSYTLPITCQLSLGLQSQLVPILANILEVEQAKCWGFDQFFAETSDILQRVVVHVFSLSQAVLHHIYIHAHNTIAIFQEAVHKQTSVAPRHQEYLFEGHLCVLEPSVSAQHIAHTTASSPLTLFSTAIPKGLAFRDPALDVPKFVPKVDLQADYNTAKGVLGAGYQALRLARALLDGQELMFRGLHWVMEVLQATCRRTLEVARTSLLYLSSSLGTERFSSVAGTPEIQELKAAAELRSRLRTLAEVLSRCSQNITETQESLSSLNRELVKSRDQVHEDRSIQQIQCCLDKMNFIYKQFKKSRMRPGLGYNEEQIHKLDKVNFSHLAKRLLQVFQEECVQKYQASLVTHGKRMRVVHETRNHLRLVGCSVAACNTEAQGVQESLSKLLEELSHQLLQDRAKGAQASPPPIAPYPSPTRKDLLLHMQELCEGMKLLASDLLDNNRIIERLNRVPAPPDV

[7] = target: Cyclin-dependent kinase 16 (Homo sapiens) (UniProt Q00536); assay: Selectivity interaction (ActivX KiNativ screen (kinase selectivity in THP-1 cell lysates)) EUB0000639a CDK16; assay type: subcellular; conditions: lysate, at 0.2 µM
Sequence of Cyclin-dependent kinase 16 (Homo sapiens) (Q00536 whole entry): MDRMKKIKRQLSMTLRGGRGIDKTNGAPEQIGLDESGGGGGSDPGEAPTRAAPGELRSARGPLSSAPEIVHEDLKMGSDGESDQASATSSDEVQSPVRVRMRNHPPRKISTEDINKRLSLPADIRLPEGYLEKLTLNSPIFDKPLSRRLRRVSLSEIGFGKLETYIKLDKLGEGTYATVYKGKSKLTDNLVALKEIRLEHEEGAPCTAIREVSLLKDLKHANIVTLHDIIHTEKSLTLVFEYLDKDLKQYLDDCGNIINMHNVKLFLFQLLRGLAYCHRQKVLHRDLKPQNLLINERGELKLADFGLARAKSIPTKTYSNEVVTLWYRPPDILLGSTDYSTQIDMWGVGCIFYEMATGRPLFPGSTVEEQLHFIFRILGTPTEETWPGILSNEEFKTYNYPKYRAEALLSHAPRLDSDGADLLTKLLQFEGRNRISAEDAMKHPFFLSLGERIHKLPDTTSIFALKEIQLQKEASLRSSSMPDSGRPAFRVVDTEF

[8] = target: Tyrosine-protein kinase BAZ1B (Homo sapiens) (UniProt Q9UIG0); assay: Selectivity interaction (Bromodomain panel (DSF asssay)) EUB0000270b BAZ1B
Sequence of Tyrosine-protein kinase BAZ1B (Homo sapiens) (Q9UIG0 whole entry): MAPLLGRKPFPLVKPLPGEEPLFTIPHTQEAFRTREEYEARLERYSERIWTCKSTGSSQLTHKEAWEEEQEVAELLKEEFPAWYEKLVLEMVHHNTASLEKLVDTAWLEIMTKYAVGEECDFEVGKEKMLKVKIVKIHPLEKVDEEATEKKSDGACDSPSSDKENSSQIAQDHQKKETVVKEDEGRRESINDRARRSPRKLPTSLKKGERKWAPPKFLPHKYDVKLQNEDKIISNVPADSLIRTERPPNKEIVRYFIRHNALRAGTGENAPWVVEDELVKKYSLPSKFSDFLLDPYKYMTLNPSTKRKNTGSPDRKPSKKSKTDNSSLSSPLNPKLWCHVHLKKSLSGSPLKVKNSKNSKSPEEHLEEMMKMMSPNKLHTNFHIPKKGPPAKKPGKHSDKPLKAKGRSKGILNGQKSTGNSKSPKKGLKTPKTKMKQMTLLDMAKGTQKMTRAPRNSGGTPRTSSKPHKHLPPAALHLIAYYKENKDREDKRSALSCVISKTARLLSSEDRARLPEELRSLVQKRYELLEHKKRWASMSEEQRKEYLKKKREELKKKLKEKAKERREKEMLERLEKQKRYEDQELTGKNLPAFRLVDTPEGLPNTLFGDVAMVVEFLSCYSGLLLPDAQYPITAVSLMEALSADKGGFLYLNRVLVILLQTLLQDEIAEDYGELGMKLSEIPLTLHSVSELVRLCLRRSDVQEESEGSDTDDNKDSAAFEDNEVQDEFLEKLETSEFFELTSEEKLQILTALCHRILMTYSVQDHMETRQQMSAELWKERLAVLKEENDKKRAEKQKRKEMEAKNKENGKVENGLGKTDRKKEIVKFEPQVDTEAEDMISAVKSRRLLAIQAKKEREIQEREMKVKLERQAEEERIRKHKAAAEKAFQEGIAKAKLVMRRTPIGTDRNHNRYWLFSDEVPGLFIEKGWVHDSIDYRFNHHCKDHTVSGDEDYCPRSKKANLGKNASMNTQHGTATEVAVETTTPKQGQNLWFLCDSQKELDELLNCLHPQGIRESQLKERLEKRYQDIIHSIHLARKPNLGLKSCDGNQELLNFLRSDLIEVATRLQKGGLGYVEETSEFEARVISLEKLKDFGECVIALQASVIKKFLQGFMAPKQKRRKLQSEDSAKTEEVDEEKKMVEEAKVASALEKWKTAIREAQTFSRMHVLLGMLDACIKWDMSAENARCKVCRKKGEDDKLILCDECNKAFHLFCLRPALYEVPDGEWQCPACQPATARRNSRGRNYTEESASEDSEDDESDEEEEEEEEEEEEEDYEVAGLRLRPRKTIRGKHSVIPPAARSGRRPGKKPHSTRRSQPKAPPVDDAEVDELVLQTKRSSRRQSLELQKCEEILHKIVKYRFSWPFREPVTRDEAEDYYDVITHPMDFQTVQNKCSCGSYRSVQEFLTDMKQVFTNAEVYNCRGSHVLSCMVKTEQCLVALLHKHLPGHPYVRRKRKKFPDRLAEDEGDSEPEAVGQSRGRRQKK

[9] = target: T3, NUAK family SNF1-like kinase 2 (Homo sapiens) (UniProt Q9H093); assay: Selectivity interaction (KinomeScan (DiscoverX)) EUB0000695a NUAK2; conditions: at 100 nM
T3 sequence (whole entry): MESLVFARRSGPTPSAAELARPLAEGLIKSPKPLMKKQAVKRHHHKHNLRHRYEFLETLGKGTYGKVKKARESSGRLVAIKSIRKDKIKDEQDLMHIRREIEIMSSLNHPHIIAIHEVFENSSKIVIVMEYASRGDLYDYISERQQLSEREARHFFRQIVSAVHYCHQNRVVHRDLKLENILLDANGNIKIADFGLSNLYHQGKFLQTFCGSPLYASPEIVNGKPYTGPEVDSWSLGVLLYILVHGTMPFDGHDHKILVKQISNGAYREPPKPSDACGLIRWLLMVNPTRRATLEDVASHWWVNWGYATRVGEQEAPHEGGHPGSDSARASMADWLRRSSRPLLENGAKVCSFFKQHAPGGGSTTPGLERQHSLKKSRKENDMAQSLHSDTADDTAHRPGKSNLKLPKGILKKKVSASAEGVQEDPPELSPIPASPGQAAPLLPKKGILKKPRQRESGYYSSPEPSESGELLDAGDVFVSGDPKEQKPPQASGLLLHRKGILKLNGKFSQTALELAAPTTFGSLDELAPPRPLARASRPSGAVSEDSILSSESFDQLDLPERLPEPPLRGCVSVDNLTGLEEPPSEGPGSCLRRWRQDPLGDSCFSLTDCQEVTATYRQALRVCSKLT

Structure (SMILES): COCCN1CCC(c2cc(CN(C)C(=O)c3cccc(Oc4ccccc4)c3)ccn2)CC1
% activity ([1]; at 1 µM): > 95% | % activity ([1]; at 10 µM): > 90%

Kdapp [2]: 9 nM
Structure (SMILES): CC(=O)Nc1cccc(-n2c(=O)n(C3CC3)c(=O)c3c(Nc4ccc(I)cc4F)n(C)c(=O)c(C)c32)c1

Structure (SMILES): O[C@H]1CC[C@H](Nc2ncc3nc(Nc4c(F)cc(F)cc4F)n([C@H]4CCOC4)c3n2)CC1
% of control [3]: 24% | % of control [4]: 78%

Structure (SMILES): COCC(=O)NC/C=C/c1ccc2ncnc(Nc3ccc(Oc4ccc(C)nc4)c(C)c3)c2c1 [CP-724714]
% of control [5]: 100%

% of inhibition ([6]; at 0.01 µM): 20.6% | % of inhibition ([6]; at 0.04 µM): 7.3% | % of inhibition ([6]; at 0.2 µM): 30.8% | % of inhibition ([6]; at 1 µM): 60.2% | % of inhibition ([6]; at 5 µM): 82.3% | % of inhibition [7]: -0.8%
Structure (SMILES): CC[C@@H]1[C@H](F)C(=O)N[C@@H]1COc1nccc2cc(C(N)=O)c(OC)cc12 [ZIMLOVISERTIB]

dTM [8]: -1.22 K
Structure (SMILES): Cc1cc(CN)cc(C)c1-c1ncn(C)c1-c1cncn1C

Structure (SMILES): Cc1cc(F)c(C(=O)Nc2cccc(-c3nncn3C(C)C)n2)cc1-n1cnc(C2CC2)c1
% of control [9]: 94%
